The results in this text go back to US9562031B1, “Phenethyldihydrobenzodioxolones and methods of use” (Sequoia Sciences, Inc., priority 2015, dated 2017).

Assay [1] relates to NCI-H522 cells. Briefly: NCI-60 panel antiproliferation, NCI-H522. The settings on record: Homo sapiens, NCI 60-cell panel. The format is cell-based, human. The protocol: (§1) Bifidenone and Compound 37 were tested for antiproliferation activity against the NCI-60 panel of cancer cell lines. COMPARE analysis was then conducted to compare the activity “fingerprint” of bifidenone to those of known classes of compounds (Zhou, B.-N., Hoch, J. M., Johnson, R. K., Mattern, M. R., Eng, W.-K., Ma, J., Hecht, S. M., Newman, D. J., Kingston, D. G. I., 2000. Use of COMPARE Analysis to Discover New Natural Product Drugs: Isolation of Camptothecin and 9-Methoxycamptothecin from a New Source. Journal of Natural Products 63, 1273-1276.).

Assay [2] relates to MDA-MB-435 cells. Briefly: NCI-60 panel antiproliferation, MDA-MB-435. The assay is classed as cell-based, human. The following applies: Homo sapiens, NCI 60-cell panel. The protocol: as §1
For assay [3], the system named is K-562 cells. Briefly: NCI-60 panel antiproliferation, K-562. The assay is classed as cell-based, human. The settings on record: Homo sapiens, K562, NCI 60-cell panel. As for the experimental part:
as §1

Assay [4] relates to SK-MEL-28 cells. Briefly: NCI-60 panel antiproliferation, SK-MEL-28. The format is cell-based, human. The settings on record: Homo sapiens, NCI 60-cell panel. The protocol: as §1
The test system of assay [5] is CCRF-CEM cells. Briefly: NCI-60 panel antiproliferation, CCRF-CEM. The assay is classed as cell-based, human. The settings on record: Homo sapiens, NCI 60-cell panel. The protocol:
as §1

The subject of assay [6] is DLD-1 cells. Briefly: antiproliferation assay, paclitaxel-resistant DLD-1. The format is cell-based. The following applies: Homo sapiens. The protocol:
(§2) For the antiproliferation assay, NCI-H460 (large cell lung carcinoma) or M14 (amelanotic melanoma) cells were grown in RPMI-1640 with 10% FBS supplemented with L-glutamine and HEPES. Cells were seeded into 96-well plates at 5×10^2 to 5×10^4 cells/well and allowed to adhere overnight; the medium was then removed. A stock solution of test compound in DMSO was diluted in medium to generate a series of working solutions. Aliquots (100 μl) of the working solutions were then added to the appropriate test wells to expose cells to the final concentrations of compound in a total volume of 100 μl. Seven different concentrations were tested, with 2-5 wells per concentration. Camptothecin was used as a positive control; wells containing vehicle without compound were used as negative controls. Plates were kept for 72 h in a 37° C., 5% CO2 incubator. After incubation, viable cells were detected with the CELLTITER 96 AQueous Non-Radioactive Cell Proliferation Assay (Promega), and IC50 values were determined using GraphPad Prism 5 software.
Compound 4 was tested for antiproliferation activity against several paclitaxel-resistant human cancer cell lines.

In assay [7] the test system is MOLT-4 cells. Briefly: antiproliferation assay, MOLT-4. The assay is classed as cell-based. The settings on record: Homo sapiens. The protocol: as §2
Antiproliferation of several of the active compounds was tested against additional cell lines.

With `C=CC[C@H]1C[C@]2([C@@H](C)Cc3ccc(OC)c(F)c3)OCOC2=CC1=O` [Compound 37, (6S,7aR)-6-allyl-7a-((S)-1-(3-fluoro-4-methoxyphenyl)propan-2-yl)-7,7a-dihydrobenzo[d][1,3]dioxol-5(6H)-one], the IC50 (usually the point on the concentration scale where inhibition reaches its midpoint) in assay [1] was 0.061 µM; in assay [2] it was 0.028 µM; in assay [3] it was 0.043 µM; in assay [4], 0.037 µM; in assay [5] it was 0.06 µM.
With `C=CC[C@H]1C[C@]2([C@H](C)Cc3cc(O)c(OC)cc3F)OCOC2=CC1=O` (relative stereo) [Compound 4, 6-allyl-7a-(1-(2-fluoro-5-hydroxy-4-methoxyphenyl)propan-2-yl)-7,7a-dihydrobenzo[d][1,3]dioxol-5(6H)-one], the IC50 in assay [6] was under 0.005 µM; in assay [7], 0.028 µM.
